AC50 data for 20 compounds are collected here from ChEMBL document CHEMBL5291721, “A preclinical secondary pharmacology resource illuminates target-adverse drug reaction associations of marketed drugs” (Nat Commun, 2023).

For assay [1], the target named is T1, Peroxisome proliferator-activated receptor gamma (Homo sapiens, UniProt P37231).
T1 sequence (P37231 whole entry): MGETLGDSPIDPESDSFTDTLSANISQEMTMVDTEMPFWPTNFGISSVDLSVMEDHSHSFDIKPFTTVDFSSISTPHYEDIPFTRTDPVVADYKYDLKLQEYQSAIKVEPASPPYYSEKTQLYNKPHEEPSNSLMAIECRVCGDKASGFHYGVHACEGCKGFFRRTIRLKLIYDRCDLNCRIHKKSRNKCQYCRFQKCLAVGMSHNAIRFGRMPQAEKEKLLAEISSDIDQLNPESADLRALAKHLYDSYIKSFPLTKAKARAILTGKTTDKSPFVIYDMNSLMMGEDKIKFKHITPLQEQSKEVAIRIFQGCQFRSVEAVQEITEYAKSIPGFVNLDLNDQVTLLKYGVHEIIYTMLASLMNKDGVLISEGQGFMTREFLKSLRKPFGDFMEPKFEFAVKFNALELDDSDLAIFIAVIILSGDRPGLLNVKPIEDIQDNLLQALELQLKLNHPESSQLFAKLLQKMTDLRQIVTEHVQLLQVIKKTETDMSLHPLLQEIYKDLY
Format: functional.

In assay [2] the target is T1, Peroxisome proliferator-activated receptor gamma. Format: functional. The source holds these as a separate data set.
For assay [3], the target named is D(1A) dopamine receptor (Homo sapiens, UniProt P21728). Format: functional, cell-based.
The target of assay [4] is T2, Muscarinic acetylcholine receptor M1 (Homo sapiens, UniProt P11229).
T2 sequence (P11229 whole entry): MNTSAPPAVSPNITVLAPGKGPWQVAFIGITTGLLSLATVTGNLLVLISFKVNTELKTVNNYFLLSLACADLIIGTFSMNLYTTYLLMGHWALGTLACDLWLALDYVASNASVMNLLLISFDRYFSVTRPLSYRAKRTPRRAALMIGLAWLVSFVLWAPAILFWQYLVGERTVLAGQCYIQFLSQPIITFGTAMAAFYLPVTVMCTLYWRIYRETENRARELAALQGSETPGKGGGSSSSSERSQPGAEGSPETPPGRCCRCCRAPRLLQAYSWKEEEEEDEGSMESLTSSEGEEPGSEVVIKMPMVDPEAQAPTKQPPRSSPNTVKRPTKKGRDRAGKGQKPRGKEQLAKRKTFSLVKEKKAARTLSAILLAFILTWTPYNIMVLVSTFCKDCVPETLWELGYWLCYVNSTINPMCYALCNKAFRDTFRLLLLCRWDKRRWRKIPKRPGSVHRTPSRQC

Assay [5] has as its target Histamine H1 receptor (Homo sapiens, UniProt P35367). Format: functional, cell-based.
Assay [6] deals with T3, Androgen receptor (Rattus norvegicus, UniProt P15207).
T3 sequence (P15207 whole entry): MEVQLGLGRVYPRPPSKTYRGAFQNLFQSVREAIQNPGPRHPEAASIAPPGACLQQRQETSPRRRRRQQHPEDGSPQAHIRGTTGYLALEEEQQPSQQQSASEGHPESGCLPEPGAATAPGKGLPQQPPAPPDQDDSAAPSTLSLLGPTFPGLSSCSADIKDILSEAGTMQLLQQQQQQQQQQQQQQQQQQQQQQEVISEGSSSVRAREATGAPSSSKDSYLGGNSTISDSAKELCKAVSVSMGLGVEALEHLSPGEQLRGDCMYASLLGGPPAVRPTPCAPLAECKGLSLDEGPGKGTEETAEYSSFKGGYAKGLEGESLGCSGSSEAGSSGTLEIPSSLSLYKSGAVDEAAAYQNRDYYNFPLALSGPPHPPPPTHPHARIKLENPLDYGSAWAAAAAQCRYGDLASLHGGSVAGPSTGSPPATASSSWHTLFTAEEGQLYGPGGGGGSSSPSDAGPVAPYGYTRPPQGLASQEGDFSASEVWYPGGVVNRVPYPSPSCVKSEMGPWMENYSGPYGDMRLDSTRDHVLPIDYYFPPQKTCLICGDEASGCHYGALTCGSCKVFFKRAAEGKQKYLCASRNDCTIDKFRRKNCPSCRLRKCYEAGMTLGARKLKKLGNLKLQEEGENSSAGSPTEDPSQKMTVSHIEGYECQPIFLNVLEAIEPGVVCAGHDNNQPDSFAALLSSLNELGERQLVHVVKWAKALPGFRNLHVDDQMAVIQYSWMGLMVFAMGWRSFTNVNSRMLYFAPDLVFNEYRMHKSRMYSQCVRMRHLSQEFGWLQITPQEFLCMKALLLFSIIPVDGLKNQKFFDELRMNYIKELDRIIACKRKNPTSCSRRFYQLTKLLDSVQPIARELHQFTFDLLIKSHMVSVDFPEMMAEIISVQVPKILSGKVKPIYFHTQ

For assay [7], the target named is Histamine H2 receptor (Homo sapiens, UniProt P25021).
For assay [8], the target named is Beta-1 adrenergic receptor (Homo sapiens, UniProt P08588). Format: functional, cell-based.
For assay [9], the target named is T4, D(4) dopamine receptor (Homo sapiens, UniProt P21917).
T4 sequence (P21917 whole entry): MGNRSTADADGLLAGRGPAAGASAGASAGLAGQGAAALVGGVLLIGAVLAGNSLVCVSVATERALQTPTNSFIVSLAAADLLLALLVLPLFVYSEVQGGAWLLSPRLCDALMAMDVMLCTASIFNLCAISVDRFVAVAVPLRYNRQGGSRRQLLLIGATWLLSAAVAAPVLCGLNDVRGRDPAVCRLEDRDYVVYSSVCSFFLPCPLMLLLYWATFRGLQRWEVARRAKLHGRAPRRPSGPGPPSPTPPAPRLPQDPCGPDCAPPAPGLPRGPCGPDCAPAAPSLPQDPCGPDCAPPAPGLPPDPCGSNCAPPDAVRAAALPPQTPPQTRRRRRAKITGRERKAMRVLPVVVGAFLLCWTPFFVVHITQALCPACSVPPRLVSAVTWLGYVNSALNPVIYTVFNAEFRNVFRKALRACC

The target in assay [10] is Hydroxycarboxylic acid receptor 2 (Homo sapiens, UniProt Q8TDS4).
For assay [11], the target named is Cannabinoid receptor 1 (Homo sapiens, UniProt P21554). Format: functional.
Assay [12] has as its target 5-hydroxytryptamine receptor 6 (Homo sapiens, UniProt P50406).
For assay [13], the target named is 5-hydroxytryptamine receptor 7 (Homo sapiens, UniProt P34969).
In assay [14] the target is Gamma-aminobutyric acid type B receptor subunit 1 (Homo sapiens, UniProt Q9UBS5).
The target of assay [15] is 5-hydroxytryptamine receptor 5A (Homo sapiens, UniProt P47898).
Note: assay procedure not described here.

Sequence of 5-hydroxytryptamine receptor 7 (P34969 whole entry): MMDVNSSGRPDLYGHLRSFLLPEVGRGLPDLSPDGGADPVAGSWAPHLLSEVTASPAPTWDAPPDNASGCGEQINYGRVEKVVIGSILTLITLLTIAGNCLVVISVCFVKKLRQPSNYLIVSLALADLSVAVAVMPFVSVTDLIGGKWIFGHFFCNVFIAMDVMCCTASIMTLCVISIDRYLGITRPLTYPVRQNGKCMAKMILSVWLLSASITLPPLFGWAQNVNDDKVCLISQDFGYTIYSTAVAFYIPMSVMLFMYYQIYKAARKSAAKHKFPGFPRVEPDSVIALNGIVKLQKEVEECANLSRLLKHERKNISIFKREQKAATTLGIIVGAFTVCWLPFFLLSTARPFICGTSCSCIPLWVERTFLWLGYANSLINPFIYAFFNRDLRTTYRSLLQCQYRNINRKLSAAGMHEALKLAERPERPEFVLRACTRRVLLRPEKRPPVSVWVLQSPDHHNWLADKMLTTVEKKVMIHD
Sequence of Histamine H1 receptor (P35367 whole entry): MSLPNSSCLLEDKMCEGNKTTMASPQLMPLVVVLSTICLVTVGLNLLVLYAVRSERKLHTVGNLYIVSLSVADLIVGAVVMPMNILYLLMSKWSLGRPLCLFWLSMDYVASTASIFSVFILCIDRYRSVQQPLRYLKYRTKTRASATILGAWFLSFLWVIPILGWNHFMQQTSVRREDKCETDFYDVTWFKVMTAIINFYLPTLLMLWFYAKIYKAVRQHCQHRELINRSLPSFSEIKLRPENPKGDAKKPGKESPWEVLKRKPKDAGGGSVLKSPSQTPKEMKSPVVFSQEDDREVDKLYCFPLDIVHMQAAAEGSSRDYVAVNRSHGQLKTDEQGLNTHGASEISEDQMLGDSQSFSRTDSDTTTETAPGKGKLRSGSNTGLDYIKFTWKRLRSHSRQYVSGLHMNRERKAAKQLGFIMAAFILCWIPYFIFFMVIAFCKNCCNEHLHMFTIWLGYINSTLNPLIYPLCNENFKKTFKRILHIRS
Sequence of Histamine H2 receptor (P25021 whole entry): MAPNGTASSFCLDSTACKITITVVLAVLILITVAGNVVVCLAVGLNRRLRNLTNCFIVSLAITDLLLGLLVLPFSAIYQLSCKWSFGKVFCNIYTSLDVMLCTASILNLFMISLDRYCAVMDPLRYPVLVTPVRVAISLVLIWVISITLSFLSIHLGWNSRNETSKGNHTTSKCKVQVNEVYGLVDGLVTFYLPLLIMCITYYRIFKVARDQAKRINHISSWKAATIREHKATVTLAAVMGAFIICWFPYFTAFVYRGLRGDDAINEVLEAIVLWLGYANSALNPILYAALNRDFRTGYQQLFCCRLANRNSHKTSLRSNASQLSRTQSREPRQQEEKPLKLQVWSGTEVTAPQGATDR
Sequence of 5-hydroxytryptamine receptor 6 (P50406 whole entry): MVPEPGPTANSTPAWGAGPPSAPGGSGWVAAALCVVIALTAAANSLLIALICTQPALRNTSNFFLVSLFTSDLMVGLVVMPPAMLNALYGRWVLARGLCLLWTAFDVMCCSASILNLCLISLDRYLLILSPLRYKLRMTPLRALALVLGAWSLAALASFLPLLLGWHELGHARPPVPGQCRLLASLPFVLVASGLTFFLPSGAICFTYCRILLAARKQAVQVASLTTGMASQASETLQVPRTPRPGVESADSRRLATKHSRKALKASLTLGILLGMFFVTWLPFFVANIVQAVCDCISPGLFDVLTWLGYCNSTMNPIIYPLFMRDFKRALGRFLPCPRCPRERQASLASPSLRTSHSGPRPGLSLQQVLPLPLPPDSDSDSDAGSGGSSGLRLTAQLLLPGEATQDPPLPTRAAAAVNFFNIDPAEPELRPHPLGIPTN
Sequence of 5-hydroxytryptamine receptor 5A (P47898 whole entry): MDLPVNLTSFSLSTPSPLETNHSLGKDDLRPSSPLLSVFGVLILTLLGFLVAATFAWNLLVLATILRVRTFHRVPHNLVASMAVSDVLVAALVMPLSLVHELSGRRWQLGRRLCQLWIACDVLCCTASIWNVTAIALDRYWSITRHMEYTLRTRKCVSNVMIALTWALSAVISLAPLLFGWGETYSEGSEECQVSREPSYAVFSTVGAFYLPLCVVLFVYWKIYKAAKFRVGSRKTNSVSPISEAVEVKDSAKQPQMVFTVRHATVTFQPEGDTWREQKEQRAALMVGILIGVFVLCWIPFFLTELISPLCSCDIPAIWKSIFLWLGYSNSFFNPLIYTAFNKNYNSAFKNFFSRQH
Sequence of Gamma-aminobutyric acid type B receptor subunit 1 (Q9UBS5 whole entry): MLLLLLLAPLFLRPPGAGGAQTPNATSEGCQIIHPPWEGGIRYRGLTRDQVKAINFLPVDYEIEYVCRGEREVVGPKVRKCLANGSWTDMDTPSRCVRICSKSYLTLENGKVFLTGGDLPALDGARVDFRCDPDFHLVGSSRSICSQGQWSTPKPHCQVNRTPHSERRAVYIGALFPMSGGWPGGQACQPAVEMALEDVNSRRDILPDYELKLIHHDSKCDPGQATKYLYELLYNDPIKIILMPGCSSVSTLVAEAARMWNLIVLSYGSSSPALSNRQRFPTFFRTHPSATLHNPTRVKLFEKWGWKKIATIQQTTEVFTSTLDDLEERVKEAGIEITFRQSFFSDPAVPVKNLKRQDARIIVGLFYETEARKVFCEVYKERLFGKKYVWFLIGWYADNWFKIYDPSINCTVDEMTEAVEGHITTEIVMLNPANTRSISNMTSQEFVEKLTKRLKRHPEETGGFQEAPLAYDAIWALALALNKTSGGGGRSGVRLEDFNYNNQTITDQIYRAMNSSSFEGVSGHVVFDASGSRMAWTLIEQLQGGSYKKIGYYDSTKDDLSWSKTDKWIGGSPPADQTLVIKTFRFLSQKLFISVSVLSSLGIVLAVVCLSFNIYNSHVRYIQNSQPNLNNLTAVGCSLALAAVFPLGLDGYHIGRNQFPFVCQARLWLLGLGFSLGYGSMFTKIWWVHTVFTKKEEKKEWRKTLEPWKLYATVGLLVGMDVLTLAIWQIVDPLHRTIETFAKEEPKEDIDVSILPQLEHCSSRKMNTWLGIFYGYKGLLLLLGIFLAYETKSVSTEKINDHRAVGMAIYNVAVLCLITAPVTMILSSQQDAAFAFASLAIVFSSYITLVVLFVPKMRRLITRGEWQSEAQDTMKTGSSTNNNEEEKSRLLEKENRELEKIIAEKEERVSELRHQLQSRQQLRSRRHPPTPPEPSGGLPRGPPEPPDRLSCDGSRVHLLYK
Sequence of Cannabinoid receptor 1 (P21554 whole entry): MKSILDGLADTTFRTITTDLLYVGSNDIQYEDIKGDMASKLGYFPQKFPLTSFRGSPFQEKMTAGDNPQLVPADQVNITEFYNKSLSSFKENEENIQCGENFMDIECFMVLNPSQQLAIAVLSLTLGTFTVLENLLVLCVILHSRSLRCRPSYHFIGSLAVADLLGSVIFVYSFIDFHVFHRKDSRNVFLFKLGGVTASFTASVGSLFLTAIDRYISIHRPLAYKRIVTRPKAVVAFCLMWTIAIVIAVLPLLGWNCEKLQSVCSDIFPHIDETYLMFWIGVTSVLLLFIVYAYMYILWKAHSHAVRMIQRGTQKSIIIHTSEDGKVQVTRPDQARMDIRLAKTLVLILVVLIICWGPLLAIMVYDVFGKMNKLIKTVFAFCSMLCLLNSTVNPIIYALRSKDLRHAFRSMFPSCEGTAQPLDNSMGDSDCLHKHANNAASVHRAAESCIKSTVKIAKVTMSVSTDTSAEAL
Sequence of Hydroxycarboxylic acid receptor 2 (Q8TDS4 whole entry): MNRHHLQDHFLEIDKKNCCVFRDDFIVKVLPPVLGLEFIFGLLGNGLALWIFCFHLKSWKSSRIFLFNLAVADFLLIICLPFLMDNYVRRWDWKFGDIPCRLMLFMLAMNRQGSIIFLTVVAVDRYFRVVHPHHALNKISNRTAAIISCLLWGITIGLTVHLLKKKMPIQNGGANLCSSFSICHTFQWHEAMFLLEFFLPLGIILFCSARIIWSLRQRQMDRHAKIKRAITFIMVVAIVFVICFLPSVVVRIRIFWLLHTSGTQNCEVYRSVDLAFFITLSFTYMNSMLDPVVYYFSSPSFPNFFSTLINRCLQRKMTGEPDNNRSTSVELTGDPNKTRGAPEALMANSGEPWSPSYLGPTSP
Sequence of Beta-1 adrenergic receptor (P08588 whole entry): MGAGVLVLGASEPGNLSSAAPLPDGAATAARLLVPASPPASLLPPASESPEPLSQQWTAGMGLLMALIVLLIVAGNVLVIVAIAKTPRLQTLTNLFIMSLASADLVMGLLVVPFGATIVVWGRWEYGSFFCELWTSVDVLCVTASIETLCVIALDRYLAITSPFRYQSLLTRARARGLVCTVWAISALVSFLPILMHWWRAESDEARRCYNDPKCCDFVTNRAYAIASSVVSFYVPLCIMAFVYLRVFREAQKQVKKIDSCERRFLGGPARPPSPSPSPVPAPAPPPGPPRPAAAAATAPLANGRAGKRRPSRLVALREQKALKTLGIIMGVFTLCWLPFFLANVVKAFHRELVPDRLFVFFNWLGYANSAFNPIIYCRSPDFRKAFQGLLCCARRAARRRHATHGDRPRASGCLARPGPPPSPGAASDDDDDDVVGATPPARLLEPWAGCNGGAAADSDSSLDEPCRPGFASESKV
Sequence of D(1A) dopamine receptor (P21728 whole entry): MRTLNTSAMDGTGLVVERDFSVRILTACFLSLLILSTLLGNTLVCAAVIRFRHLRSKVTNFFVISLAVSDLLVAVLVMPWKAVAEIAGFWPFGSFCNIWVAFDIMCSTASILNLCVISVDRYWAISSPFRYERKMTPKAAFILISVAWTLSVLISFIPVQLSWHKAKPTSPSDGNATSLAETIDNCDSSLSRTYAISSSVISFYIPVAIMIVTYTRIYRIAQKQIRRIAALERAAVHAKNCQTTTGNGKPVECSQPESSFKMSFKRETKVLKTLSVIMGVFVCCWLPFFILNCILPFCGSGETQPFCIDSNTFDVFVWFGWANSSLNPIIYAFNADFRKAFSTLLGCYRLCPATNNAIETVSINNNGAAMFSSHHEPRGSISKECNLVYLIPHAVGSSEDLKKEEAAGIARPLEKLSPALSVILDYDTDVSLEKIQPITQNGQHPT

Turning to `CC[C@@H](C(N)=O)N1CCCC1=O`, the half-maximal activity concentration (AC50) in assay [1] and in assay [2] was greater than 30 µM in each case.

In the case of `CCC(CC)(CC(=O)Nc1cccc(/C=C/c2nc(C3CCC3)cs2)c1)C(=O)O`, the AC50 in assay [1] and in assay [2] was greater than 30 µM in each case.

As to `CC(=O)c1ccc2c(c1)N(CCCN(C)C)c1ccccc1S2` [ACEPROMAZINE], the activity in assay [3] was half-maximal at 1.4 µM (AC50).

`Nc1ccncc1N` [AMIFAMPRIDINE] had an AC50 in [4] greater than 30 µM.

In assay [3], `C=CCN1C[C@H](C(=O)N(CCCN(C)C)C(=O)NCC)C[C@@H]2c3cccc4[nH]cc(c34)C[C@H]21` [CABERGOLINE] registered a half-maximal activity concentration (AC50) greater than 30 µM.

Compound `CN1CCN(C2=Nc3ccccc3Sc3ccc(Cl)cc32)CC1` [CLOTHIAPINE] came in with an AC50 in assay [5] of 0.63 µM.

Turning to `CCOc1ccc(Cc2cc([C@@H]3O[C@H](CO)[C@@H](O)[C@H](O)[C@H]3O)ccc2Cl)cc1` [DAPAGLIFLOZIN], the AC50 is greater than 30 µM in assay [6] and greater than 10 µM in assay [7].

In the case of `CN(C)CC/C=C1\c2ccccc2CSc2ccccc21` [DOTHIEPIN], the half-maximal activity concentration (AC50) in assay [8] is greater than 30 µM.

As for `CC[C@H]1CN2CCc3cc(OC)c(OC)cc3[C@@H]2C[C@@H]1C[C@H]1NCCc2cc(OC)c(OC)cc21` [EMETINE], the half-maximal activity concentration (AC50) in [1] and in [2] was greater than 30 µM throughout.

`COc1ccc(C(=O)Nc2ccccc2CCC2CCCCN2C)cc1` (configuration not stated) [ENCAINIDE]: the AC50 in assay [9] is greater than 10 µM; in assay [10] it was greater than 10 µM; in assay [5] it was greater than 30 µM; in [7] it was 16.2 µM.

As to `O=[N+]([O-])O[C@@H]1CO[C@H]2[C@@H]1OC[C@@H]2O` [ISOSORBIDE MONONITRATE], the AC50 in assay [9], in assay [10] and in [7] was greater than 10 µM in each case.

Regarding `Cc1cc(C)c(NC(=O)CN(CC(=O)O)CC(=O)O)c(C)c1Br` [MEBROFENIN], in [4], the AC50 is greater than 30 µM.

Turning to `COc1ccccc1N1CCN(CC(O)COc2cccc3ccccc23)CC1` (configuration not stated) [NAFTOPIDIL], the AC50 in assay [8] and in [4] was greater than 30 µM in each case.

`COc1cc2nc(N3CCN(C(=O)c4ccco4)CC3)nc(N)c2cc1OC` [PRAZOSIN] returned an AC50 in assay [9] greater than 10 µM.

`O=[N+]([O-])c1cn2c(n1)OC[C@@H](OCc1ccc(OC(F)(F)F)cc1)C2` [PRETOMANID]: the AC50 in [11], in [7], in [12] and in assay [13] was greater than 10 µM in each case.

`Cc1oc(=O)oc1CN1CCN(c2cc3c(cc2F)c(=O)c(C(=O)O)c2n3C(C)S2)CC1` (configuration not stated) [PRULIFLOXACIN] yielded an AC50 in [4] greater than 30 µM.

For the compound `CCCCCNC(=N)N/N=C/c1c[nH]c2ccc(OC)cc12` [TEGASEROD], the AC50 in [9] was 0.657 µM; in [14], greater than 10 µM; in assay [15], 0.19 µM; in assay [12], 0.198 µM; in assay [13], 0.802 µM; in assay [1] it was greater than 30 µM. The half-maximal activity concentration (AC50) in assay [2] is greater than 30 µM.

`C=CCCCCCCCCC(=O)O` [UNDECYLENIC ACID] came in with an AC50 in assay [4] greater than 30 µM.

`CCOc1ccccc1OCC1CNCCO1` (configuration not stated) [VILOXAZINE]: the AC50 is greater than 30 µM in assay [6]; greater than 10 µM in [11]; greater than 10 µM in assay [9]; greater than 10 µM in assay [14]; greater than 30 µM in assay [5]; greater than 10 µM in assay [7]. For the same compound, the half-maximal activity concentration (AC50) in assay [15], in assay [12] and in assay [13] was greater than 10 µM in each case.

Compound `CN(C)CCc1c[nH]c2ccc(C[C@H]3COC(=O)N3)cc12` [ZOLMITRIPTAN] came in with a half-maximal activity concentration (AC50) in [5] greater than 30 µM.

As usually defined, the AC50 is the concentration giving half of the maximal activity seen. A higher AC50 goes with weaker potency.
